Measurements from patent US11597703B2, “Caspase inhibitors and methods of use thereof” (Histogen Inc., priority 2019, dated 2023).

Tests used:
[1] = tested on: Jurkat cells; experiment: Prevention of Fas-induced apoptosis in Jurkat cells (WST-8); assay type: cell-based; details: Homo sapiens, 10 micromolar, read-out: % Prevention of Fas - induced Jurkat cell apoptosis at 10 micromolar
[2] = tested on: IL-1β; experiment: Mouse in vivo model of peritoneal inflammation (LPS/ATP), IL-1β in peritoneal lavage fluid; parameters: species or system Mice; details: mouse peritonitis, IP injection
Experimental: (§1) Compounds of the present invention were tested in a mouse in vivo model of peritoneal inflammation (peritonitis). Mice were treated with intraperotonial injection of bacterial endotoxin, (LPS). After 1 hour, test compounds were administered by IP injection. After an additional hour, adenosine triphosphate (ATP) was administered by IP injection to further induce the production of the inflammatory cytokines, IL-1β and IL 18. After 0.5 hours, peritoneal lavage fluid was collected and analyzed for IL-1β and IL 18. An inhibitor of the NLRP 3 inflammasome, MCC950, was administered by IP injection and included as a reference test compound. […] IL18 levels were determined by a commercially available ELISA kit following the manufacture's instructions FIG. 3.

[3] = molecular target: T1, Caspase-3 (Homo sapiens, UniProt P42574); experiment: Caspase-3 enzymatic inhibition assay, IC50; assay type: biochemical; details: read-out: Caspase 3 enzyme inhibition IC50
T1 construct: purchased Enzo Biosciences
T1 sequence (P42574 29-175 limits assumed): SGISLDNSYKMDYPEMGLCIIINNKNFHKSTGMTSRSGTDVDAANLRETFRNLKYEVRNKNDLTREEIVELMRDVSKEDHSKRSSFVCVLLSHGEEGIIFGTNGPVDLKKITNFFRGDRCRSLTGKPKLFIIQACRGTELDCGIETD
T1 sequence (P42574 176-277 limits assumed): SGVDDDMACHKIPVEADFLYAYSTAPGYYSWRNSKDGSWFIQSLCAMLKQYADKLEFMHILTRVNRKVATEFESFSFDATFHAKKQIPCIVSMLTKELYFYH
How it was run: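 Following manufacturer-specified conditions, enzymatic activity of purchased human caspase-3, -6 and -7 was measured with compound present to obtain IC50s.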

[4] = tested on: IL-1β; experiment: Inhibition of LPS-stimulated IL-1β in THP-1 cells (ELISA); assay type: cell-based, human; details: Homo sapiens, 10 micromolar, read-out: Percent Inhibition of IL1-β
[5] = tested on: IL 18; experiment: Mouse in vivo model of peritoneal inflammation (LPS/ATP), IL 18 in peritoneal lavage fluid; parameters: species or system Mice; details: mouse peritonitis, IP injection
Experimental: as §1

IC50 [3]: ≥ 1 µM
SMILES: C[C@H](NC(=O)C(=O)Nc1c(F)cccc1F)C(=O)N[C@@H](CCC(=O)O)C(=O)COc1c(F)c(F)cc(F)c1F [Example 6, (S)-4-((S)-2-(2-((2,6-Difluorophenyl)amino)-2-oxoacetamido)propanamido)-5-oxo-6-(2,3,5,6-tetrafluorophenoxy)hexanoic acid]
inhibition at 10 µM [1]: ≤ 10%
inhibition of the in vivo production of IL-1β [2]: statistically significant inhibition
inhibition at 10 µM [4]: > 90%
inhibition of the in vivo production of IL 18 [5]: statistically significant inhibition
